Data taken from patent US10344330B2, “Glatiramer acetate response biomarker mRNA potency assay” (Mylan Inc., priority 2013, dated 2019).

B1: MBP: myelin basic protein, a negative control (protein, UniProt P02686 1-304, looked up)
Myelin basic protein: MGNHAGKRELNAEKASTNSETNRGESEKKRNLGELSRTTSEDNEVFGEADANQNNGTSSQDTAVTDSKRTADPKNAWQDAHPADPGSRPHLIRLFSRDAPGREDNTFKDRPSESDELQTIQEDSAATSESLDVMASQKRPSQRHGSKYLATASTMDHARHGFLPRHRDTGILDSIGRFFGGDRGAPKRGSGKDSHHPARTAHYGSLPQKSHGRTQDENPVVHFFKNIVTPRTPPPSQGKGRGLSLSRFSWGAEGQRPGFGYGGRASDYKSAHKGFKGVDAQGTLSKIFKLGGRDSRSGSPMARR

Tests used:
Type in all cases: cell-based, mouse
[1] = tested on: IL-2 mRNA in LN cells; assay: IL-2 mRNA by real-time PCR in LN cells of GA-immunized CD-1, BALB/cByJ, SJL/J mice (Example III); conditions: 6 hours
Experimental: On Day 0, mice were immunized with 250 μg GA (GMA, Mylan Pharmaceuticals, Inc.) and CFA. The GA solution (20 mg/mL) was diluted with Dulbecco's Phosphate-Buffered Saline to 5 mg/mL. The dosing formulation consisted of equal volumes of the diluted GA solution (5 mg/mL) and CFA solution, mixed until well-emulsified. Animals were weighed and allocated to groups. Animals were dosed by injection into four footpads. The injection volume per animal was 0.1 mL (about 10 μL into each front footpad, and 40 μL into each hind footpad).
Immunized animals were euthanized by cervical dislocation on Day 10 post-immunization. Lymph node cells were isolated from animals and treated with Myelin Basic Protein (MBP, a negative control), Concanavalin A (ConA, a positive control) or GA as shown in Table 16. Lymph nodes in the axillary and popliteal regions were removed aseptically in a purifier clean bench. […] The LN were then washed 3 times with −5 mL of RPMI medium, and isolated by pressing the LN with a syringe plunger. […] The cell suspension was centrifuged at about 200×g for 10 minutes at about 4° C. and re-suspended in ice cold enriched DCCM-1 medium. Cells were seeded in 96-well tissue culture plates.
LN cells isolated from GA-immunized animals were stimulated with GA (GMA, Mylan Pharmaceuticals, Inc.) at concentrations as indicated in Tables 16 and 17. A positive control was prepared by treating LN cells with 2.5 μg/mL concavalin A (ConA, a non-specific T cell stimulant). Myelin basic protein (MBP, 10 μg/mL) and enriched DCCM-1 medium served as negative controls. The cells from all groups each were stimulated with the same GA lot. Each reaction was set up in triplicate.
After incubation at about 37° C. in a humidified CO2 incubator for 6 hours, the cells were lysed for total RNA isolation. Total RNA was isolated from treated LN cells using SV 96 Total RNA Isolation System according to the manufacturer's protocol (Promega, Cat. #Z3500). Cells were washed once with Phosphate Buffered Saline (PBS) and lysed in RNA lysis buffer. The lysate was transferred to wells of the SV 96 binding plate. Samples were washed with RNA wash solution and treated with DNase. Total RNA was eluted with nuclease-free water from the binding plate.
After the reverse transcriptase reaction was completed, cDNA samples were used directly for real-time PCR to measure the response biomarker mRNA levels produced by the stimulated cells. […] All probes for target genes contained FAM dye, and probes for the internal control contained VIC®/MGB dye. Samples will be prepared and run in 96-well plates using a Real-Time PCR system (7500, Life Technologies). This system allows direct detection of PCR-product formation by measuring the increase in fluorescent emission continuously during the PCR reaction. A relative quantitation method was used to analyze changes in mouse IL-2, IL-4, IL-5, IL-10, IL-13, IFN-γ and TNF-α expression in GA-treated samples relative to the untreated control (enriched DCCM-1 treated) samples. The Real-Time PCR program was:
The levels of mouse cytokine amplicons (IL-2, IL-4, IL-5, IL-10, IL-13, mIFN-γ and TNF-α) were normalized to internal probe levels (GAPDH) from the same samples. The following equations were used to calculate the relative increase in response to GA stimulation compared to the control sample: ΔCT=CT_target−CT_reference ΔΔCT=−ΔCT_Treated−CT_VC

[2] = tested on: IL-1b secreted by LN cells; assay: IL-1b secretion by GA-stimulated LN cells, MSD 9-plex ELISA (Example II); conditions: for IL-1b secretion response ratio (treated cell medium to control DCCM1 medium): 21 hr
[3] = tested on: mIFN-γ mRNA in primary LN cells; assay: mIFN-γ mRNA by real-time PCR in stimulated LN cells of immunized (SJL/J×BALB/C)F1 mice (Example I)
Experimental: For each of the three experiments summarized in Table 1, female (SJL/J×BALB/C) F1 hybrid (Jackson Laboratory) mice were immunized by footpad injection with either 250 μg GMA (Mylan Pharmaceuticals, Inc.) and CFA (Sigma Aldrich), or Mannitol and CFA (as a negative control). The GA solution was diluted to 5 mg/mL with Dulbecco's Phosphate-buffered saline. A dose solution was then prepared by mixing the diluted GA solution (5 mg/mL) and CFA (1:1) until well-emulsified. Each mouse received a total injection volume of 0.1 mL (250 μg GA). Animals were immunized on Day 0. Immunized animals were sacrificed via cervical dislocation on Day 10 following immunization. […] The LN were washed 3 times with −5 mL of RPMI medium, and the LN cells isolated by pressing the LN with a syringe plunger. […] The cell suspension was centrifuged at about 200×g for 10 minutes at about 4° C. and re-suspended in ice cold enriched DCCM-1 medium. The LN cells (2.5×10^6 cells/cm^2) were plated in the wells of a 48-well tissue culture plate and stimulated with GA or controls.
Expression of cytokine mRNA was quantitatively analyzed using a Real-Time PCR system (7500, Applied Biosystems).
(DCCM1 from Beit Haemek Ltd.; Cat. No. 05 010 1A). There was no MBP treatment for the 2-hour groups.
Group 1B animals were female (SJL/J×BALB/C) F1 hybrid (Jackson Laboratory) mice immunized by footpad injection with either 250 μg GA and CFA, or Mannitol and CFA (as a negative control). A dose solution was prepared by mixing a diluted GA solution (5 mg/mL) and CFA (1:1). Each mouse received a total injection volume of […] (250 μg GA). Animals were immunized on Day 0. Immunized animals were sacrificed via cervical dislocation on Day 10 following immunization. Lymph nodes from immunized mice were removed and isolated. LN cells (2.5×10^6 cells/cm^2) were plated in the wells of a 48-well tissue culture plate for stimulation with GA.
Expression of cytokine mRNA was quantitatively analyzed 4 and 6 hours after using a Real-Time PCR system (7500, Applied Biosystems).

[4] = Group 1C: CD-1, GA-immunized, stimulation 10 μg/mL
[5] = Group 2C: BALB/cByJ, GA-immunized, stimulation 10 μg/mL
[6] = Group 3C: SJL/J, GA-immunized, stimulation 10 μg/mL
[7] = Experiment 1, GA-immunized (SJL/J×BALB/C)F1, 2 hour post stimulation, GA 10, ConA 2.5 μg/mL
[8] = Experiment 1, GA-immunized (SJL/J×BALB/C)F1, 4 hour post stimulation, GA 10, MBP 10, ConA 2.5 μg/mL
[9] = Experiment 1, GA-immunized (SJL/J×BALB/C)F1, 6 hour post stimulation, GA 10, MBP 10, ConA 2.5 μg/mL
[10] = Experiment 1, GA-immunized (SJL/J×BALB/C)F1, 24 hour post stimulation, GA 10, MBP 10, ConA 2.5 μg/mL
[11] = Group 1B (GA + CFA), 4 hours post-stimulation, GA 10, MBP 10, ConA 2.5 μg/mL, reference GAPDH
[12] = Group 1B (GA + CFA), 6 hours post-stimulation, GA 10, MBP 10, ConA 2.5 μg/mL, reference GAPDH
[13] = Group 2B (Mannitol + CFA), 4 hours post-stimulation, GA 10, MBP 10, ConA 2.5 μg/mL, reference GAPDH
[14] = Group 2B (Mannitol + CFA), 6 hours post-stimulation, GA 10, MBP 10, ConA 2.5 μg/mL, reference GAPDH
[15] = BALB/cByJ, immunized GA Intraplantar
[16] = BALB/cByJ, immunized GA Lower Limb
[17] = C57BL10J, immunized GA Lower Limb

Molecule | IL-2 mRNA Expression [1, 4] [fold change vs control] | IL-2 mRNA Expression [1, 5] [fold change vs control] | IL-2 mRNA Expression [1, 6] [fold change vs control] | mIFN-γ mRNA Level [3, 7] [fold change vs control] | mIFN-γ mRNA Level [3, 8] [fold change vs control] | mIFN-γ mRNA Level [3, 9] [fold change vs control] | mIFN-γ mRNA Level [3, 10] [fold change vs control] | mIFN-γ mRNA Level [3, 11] [fold change vs control] | mIFN-γ mRNA Level [3, 12] [fold change vs control] | mIFN-γ mRNA Level [3, 13] [fold change vs control] | mIFN-γ mRNA Level [3, 14] [fold change vs control] | IL-1b secretion response ratio (treated cell medium to control DCCM1 medium) [2, 15] | IL-1b secretion response ratio (treated cell medium to control DCCM1 medium) [2, 16] | IL-1b secretion response ratio (treated cell medium to control DCCM1 medium) [2, 17] | IL-1b secretion response ratio (treated cell medium to control DCCM1 medium) ([2]; CD-1, immunized GA Lower Limb) | also measured
L-glutamic acid polymer with L-alanine, L-lysine and L-tyrosine, acetate (salt) [GA] | 4.3 | 38.0 | 22.0 | 1.3 | 2.1 | 4.6 | 4.6 | 7.0 | 2.4 | 1.2 | 1.8 |  |  |  |  | IL-2 mRNA Expression ([1]; Group 1C: CD-1, GA-immunized, stimulation 0.3 μg/mL): 1.0 fold change vs control; IL-2 mRNA Expression ([1]; Group 1C: CD-1, GA-immunized, stimulation 1 μg/mL): 1.6 fold change vs control; IL-2 mRNA Expression ([1]; Group 1C: CD-1, GA-immunized, stimulation 3 μg/mL): 2.9 fold change vs control; IL-2 mRNA Expression ([1]; Group 2C: BALB/cByJ, GA-immunized, stimulation 0.3 μg/mL): 4.0 fold change vs control; IL-2 mRNA Expression ([1]; Group 2C: BALB/cByJ, GA-immunized, stimulation 1 μg/mL): 11.7 fold change vs control; IL-2 mRNA Expression ([1]; Group 2C: BALB/cByJ, GA-immunized, stimulation 3 μg/mL): 27.4 fold change vs control; IL-2 mRNA Expression ([1]; Group 3C: SJL/J, GA-immunized, stimulation 0.3 μg/mL): 1.3 fold change vs control; IL-2 mRNA Expression ([1]; Group 3C: SJL/J, GA-immunized, stimulation 1 μg/mL): 4.7 fold change vs control; IL-2 mRNA Expression ([1]; Group 3C: SJL/J, GA-immunized, stimulation 3 μg/mL): 11.0 fold change vs control; IL-1β secretion, dose response to GA (in words) ([2]; BALB/cByJ and CD-1, primed by intraplantar injection): Dose response of IL-1β was detected
Concanavalin A [ConA, reference compound] |  |  |  | 40.9 | 49.3 | 18.2 | 0.4 | 29.5 | 3.0 | 15.5 | 8.9 | 11.73 | 8.70 | 1.42 | 2.86 | IL-2 mRNA Expression ([1]; Group 1C: CD-1, GA-immunized, stimulation 2.5 μg/mL): 17.1 fold change vs control; IL-2 mRNA Expression ([1]; Group 2C: BALB/cByJ, GA-immunized, stimulation 2.5 μg/mL): 231.7 fold change vs control; IL-2 mRNA Expression ([1]; Group 3C: SJL/J, GA-immunized, stimulation 2.5 μg/mL): 61.9 fold change vs control
B1 | 0.9 | 2.7 | 0.5 |  | 0.8 | 0.2 | 0.6 | 0.9 | 0.6 | 1.1 | 0.9 | 1.15 | 0.96 | 1.17 | 1.00 | 
